In series [1] the test system is 60 human tumor cell lines. The following applies: 5-fluorouracil comparison value; cited from earlier work.
The conditions of series [2]: literature; cited from earlier work.
For series [3] the following is noted: literature; cited from earlier work. This is another data set of the same source.
In series [4] the test system is acetic acid induced mouse writhes. Put plainly: Acetic acid induced mouse writhes (analgesic activity). The series is classed as in vivo, mice. To be noted: oral. The method, then:
Analgesic activity was evaluated by a procedure similar to that described by Koster et al. [R. Koster, et al., Fed. Proc., 18, 412 (1959)]. About one hour after oral administration of test compounds to mice, 0.1 ml/10 g body weight of acetic acid was intraperitoneally injected. About five minutes later, the number of writhes of each mouse was counted for a period of about 20 minutes. The analgesic effect was manifested as a reduction in the number of writhes. "Compound numbers" refer to compounds whose synthesis is illustrated in the corresponding Example number. The P values are the results of T-tests, which are well known to those skilled in the art.

Series [5] concerns 60 human tumor cell lines. The series can be described thus: National Cancer Institute in vitro tumor cell screen. The series is classed as cell-based. On the set-up: key to Differential Cellular Sensitivity GI50, tumor cell line subpanels / Differential Cellular Sensitivity LC50, tumor cell line subpanels / Differential Cellular Sensitivity TGI, tumor cell line subpanels: LEU: Leukemia/lymphoma; LNS: Nonsmall cell lung; COL: Colon; MEL: Melanoma; OVA: Ovary; REN: Kidney; SCL: Small cell lung. To be noted: for GI50 / IC100 / LC50: Homo sapiens, molar concentration, mean of all cell lines; for GI50: 50% inhibition of cell proliferation, read-out: Mean response of all cell lines (Log) GI50 (converted); for IC100: 100% inhibition of cell proliferation, read-out: Mean response of all cell lines (Log) TGI (converted); for Differential Cellular Sensitivity GI50, tumor cell line subpanels: subpanels for GI50; for Differential Cellular Sensitivity LC50, tumor cell line subpanels: subpanels for LC50; for Differential Cellular Sensitivity TGI, tumor cell line subpanels: subpanels for TGI; for LC50: 50% of cell population killed, read-out: Mean response of all cell lines (Log) LC50 (converted).
Method: In the assay, a candidate compound was tested for its ability to inhibit tumor cell growth. A dose response curve of percent cell growth versus compound concentration over a concentration range of 10^-9 to 10^-4 molar of each test compound was established to determine GI50, TGI and LC50. GI50 and TGI denote that cell proliferation was inhibited by 50% and 100% respectively. LC50 denotes that 50% of cell population was killed. The selectivity of a compound towards a certain type of tumor cell line was evaluated from mean graphs which compared the relative drug concentrations required to produce the same level of response (e.g. GI50) in each cell line. A differential cellular sensitivity index was calculated by taking the difference between the logarithm of GI50 (or TGI, LC50) value for a cell line versus the arithmetic mean of the logarithm of GI50 (or TGI, LC 50) value for all cell line responses measured for a given compound.

In series [6] the test system is Ehrlich ascites carcinoma. The series can be described thus: Antitumor effect on Ehrlich ascites carcinoma, survival. The series is classed as in vivo, ICR mice. The following applies: 20 mg/kg/day intraperitoneal, 9 days. The method, then:
Antitumor effect was measured on Ehrlich ascites carcinoma. Ehrlich ascites carcinoma cells were intraperitoneally administered to ICR mice. After 24 hours, 20 mg/kg/day of the compound whose synthesis is illustrated in Example 1 and Example 2 were each administered to the mice by intraperitoneal route for 9 days. The periods of survival of these animals were examined.

Series [7] concerns carrageenin-induced rat paw edema. Put plainly: Carrageenin-induced rat paw edema (anti-inflammatory activity). It counts as in vivo, Wistar rats. The following applies: paw volume at about 3 hours. The method, then:
Anti-inflammatory activity was evaluated by examining the inhibitory activity of candidate compounds on carrageenin-induced rat paw edema according to a literature procedure [C. A. Winter, et al., Proc. Soc. Exp. Biol. Med. 111, 544 (1962)]. Test compounds were orally administered about 1 hour or subcutaneously injected about 0.5 hours before the injection of 100 microliters of a 1% suspension of carrageenin in saline into the subcutaneous tissues of the right hind paw of Wistar rats. The paw volumes were measured about 3 hours after carrageenin injection. The paw volumes were compared with that of a control group to give the percentage of inflammation inhibition. The results of these tests are shown in Table I. "Compound numbers" refer to compounds whose synthesis is illustrated in the corresponding Example number. The P values are the results of T-tests, which are well known to those skilled in the art.
For orientation: Carrageenan injected into the paw causes an acute inflammation.

[8] abbreviates: 50.0 mg/kg sc, about 0.5 hours before carrageenin.
[9] abbreviates: 25.0 mg/kg sc, about 0.5 hours before carrageenin.
Where [10] appears, read: 96.0 mg/kg po, about 1 hour before carrageenin.

The text below walks through data of patent US5250735A, “2-(N-substituted-aminoalkyl)-5-(E)-alkylidene cyclopentanones, 2-(N-substituted-aminoalkyl)-5-(E)-arylalkylidene cyclopentanones, and derivatives thereof” (priority 1992, dated 1993).

Counter-ions that a name gives are not always drawn.

As to `O=c1[nH]cc(F)c(=O)[nH]1` [5-fluorouracil], the “mean log LC50” value in series [1] is given as -3.5.
For the compound `C=C1C(=O)O[C@H]2C[C@@H](C)[C@@H]3C=CC(=O)[C@@]3(C)C[C@H]12` [Aromaticin], the “anti-inflammatory activity (in words)” value in series [2] was “potent”. Further, the “anticancer activity (in words)” value in series [3] is “potent”.
Consider `CC(=O)Oc1ccccc1C(=O)O` [Aspirin, reference compound], for which the “Inhibition of acetic acid induced mouse writhes” value in series [4] (100 mg/kg) is 46.7%; in series [4] (200 mg/kg), 64.0%.
One may read the GI50 as the concentration that inhibits growth by half. As to `CCCCCCC/C=C1\CCC(CN(C)C)C1=O.Cl` (centres unmarked) [Compound 2, 2-Dimethylaminomethyl-5-(E)-octylidene cyclopentanone hydrochloride], in series [5], the GI50 is 5.13 µM; the IC100 is 12.3 µM; the “Differential Cellular Sensitivity GI50, tumor cell line subpanels” value (“Differential Cellular Sensitivity GI50” for short) was “LEU;COL”; the “Differential Cellular Sensitivity LC50, tumor cell line subpanels” value (“Differential Cellular Sensitivity LC50” for short) is on record as “COL;LNS;REN”. Also, in series [5], the “Differential Cellular Sensitivity TGI, tumor cell line subpanels” value (“Differential Cellular Sensitivity TGI” for short) was “COL;REN”. In series [6], the “average number of days of survival” value was determined as 33 ± 8.2 days, the “increase of life span (ILS %) over the control” value turned out to be 112.0% and the “ratio of survival for more than 40 days” value was 3/9.
One may read the LC50 as the concentration that kills 50% of the test population. Consider `CC(C)=C1CCC(CN(C)C)C1=O.Cl` (centres unmarked) [Compound 3, 2-Dimethylaminomethyl-5-(1-methylethylidene) cyclopentanone hydrochloride], for which, in series [5], the GI50 was 19.1 µM; the LC50 was 67.6 µM; the IC100 was 40.7 µM; the “Differential Cellular Sensitivity GI50” value was “LEU”. For the same compound, in series [5], the “Differential Cellular Sensitivity LC50” value is listed as “SCL” and the “Differential Cellular Sensitivity TGI” value is given as “COL;LEU”.
With `CCOC(=O)COc1ccccc1/C=C1\CCC(CN(C)C)C1=O.Cl` (centres unmarked) [Compound 4, 2-Dimethylaminomethyl-5-(E)-(2-ethoxycarbonylmethoxyl-benzylidene) cyclopentanone hydrochloride], in series [5], the GI50 was 6.31 µM; the IC100 is 15.8 µM; the “Differential Cellular Sensitivity GI50” value was “LEU”; the “Differential Cellular Sensitivity LC50” value was “CNS;LNS;MEL”. In series [5], the “Differential Cellular Sensitivity TGI” value was “LEU”.
On to `CC(/C=C1\CCC(CN(C)C)C1=O)c1cccc(Br)c1.Cl` (centres unmarked) [Compound 5, 2-Dimethylaminomethyl-5-(E)-[2-(3-bromophenyl)propylidene] cyclopentanone hydrochloride], for which, in series [5], the GI50 is 12.6 µM; the LC50 was 63.1 µM; the IC100 was 27.5 µM; the “Differential Cellular Sensitivity GI50” value is “LEU”. Also, in series [5], the “Differential Cellular Sensitivity LC50” value is on record as “CNS;OVA” and the “Differential Cellular Sensitivity TGI” value is listed as “LEU”.
For `CN(C)CC1CC/C(=C\c2ccccc2)C1=O.Cl` (centres unmarked) [Compound 6, 2-Dimethylaminomethyl-5-(E)-benzylidene cyclopentanone hydrochloride], the “Inhibition of carrageenin induced rat paw edema” value in series [7] (setting [8]) was determined as 77.4%.
Regarding `COc1ccccc1/C=C1\CCC(CN(C)C)C1=O.Cl` (centres unmarked) [Compound 7, 2-Dimethylaminomethyl-5-(E)-[(2-methoxy)benzylidene] cyclopentanone hydrochloride], in series [7] (12.5 mg/kg sc, about 0.5 hours before carrageenin), the “Inhibition of carrageenin induced rat paw edema” value amounted to 44.2%. Also, in series [7] (setting [9]), the “Inhibition of carrageenin induced rat paw edema” value amounted to 70.3%. Also, the “Inhibition of carrageenin induced rat paw edema” value in series [7] (setting [8]) turned out to be 95.8%. Moreover, in series [5], the GI50 was 6.31 µM; the LC50 is 39.8 µM; the IC100 was 15.8 µM; the “Differential Cellular Sensitivity GI50” value was “LEU”. Besides, in series [5], the “Differential Cellular Sensitivity LC50” value was “COL” and the “Differential Cellular Sensitivity TGI” value is listed as “COL”.
Consider `CN(C)CC1CC/C(=C\c2ccc(O)cc2)C1=O.Cl` (centres unmarked) [Compound 8, 2-Dimethylaminomethyl-5-(E)-[(4-hydroxy)benzylidene] cyclopentanone hydrochloride], for which, in series [7] (setting [8]), the “Inhibition of carrageenin induced rat paw edema” value came out at 95.9%. In addition, in series [5], the GI50 is 4.27 µM; the IC100 was 10.7 µM; the “Differential Cellular Sensitivity GI50” value is “COL;LEU”; the “Differential Cellular Sensitivity LC50” value is “CNS;REN;SCL”. In series [5], the “Differential Cellular Sensitivity TGI” value is listed as “LEU”.
For `O=C1/C(=C/c2ccc(O)cc2)CCC1CNc1ccc(Cl)cc1` (centres unmarked) [Compound 9, 2-[(4-Chlorophenyl)aminomethyl]-5-(E)-[(4-hydroxy)benzylidene] cyclopentanone], in series [5], the GI50 is 3.16 µM; the LC50 is 30.9 µM; the IC100 was 10 µM; the “Differential Cellular Sensitivity GI50” value was “COL;LEU;SCL”. In series [5], the “Differential Cellular Sensitivity LC50” value is on record as “COL” and the “Differential Cellular Sensitivity TGI” value is reported as “LEU;SCL”.
For `COc1ccccc1/C=C1\CCC(CN2CCOCC2)C1=O.Cl` (centres unmarked) [Compound 10, 2-Morpholinomethyl-5-(E)-[(2-methoxy)benzylidene]cyclopentanone hydrochloride], in series [5], the GI50 was 7.94 µM; the LC50 is 52.5 µM; the IC100 was 19.5 µM; the “Differential Cellular Sensitivity GI50” value is on record as “LEU;COL”. Moreover, in series [5], the “Differential Cellular Sensitivity LC50” value was “MEL;REN;OVA” and the “Differential Cellular Sensitivity TGI” value is “LEU”.
Consider `COc1ccccc1/C=C1\CCC(Cc2ccccc2)(CN(C)C)C1=O.Cl` (centres unmarked) [Compound 11, 2-Benzyl-2-dimethylaminomethyl-5-(E)-[(2-methoxy)benzylidene] cyclopentanone hydrochloride], for which the “Inhibition of carrageenin induced rat paw edema” value in series [7] (setting [10]) stood at 52.2%. Besides, in series [4] (96 mg/kg), the “Inhibition of acetic acid induced mouse writhes” value came to 41.7%. In series [5], the GI50 is 2.19 µM; the LC50 is 83.2 µM; the IC100 is 25.1 µM; the “Differential Cellular Sensitivity GI50” value is given as “LEU;COL”. Also, in series [5], the “Differential Cellular Sensitivity LC50” value is “COL” and the “Differential Cellular Sensitivity TGI” value is “LEU”.
In the case of `COc1ccc(/C=C2\CCC(Cc3ccccc3)(CN(C)C)C2=O)cc1.Cl` (centres unmarked) [Compound 12, 2-Benzyl-2-dimethylaminomethyl-5-(E)-[(4-methoxy)benzylidene] cyclopentanone hydrochloride], the “Inhibition of carrageenin induced rat paw edema” value in series [7] (setting [10]) stood at 57.3%. For the same compound, the “Inhibition of acetic acid induced mouse writhes” value in series [4] (48 mg/kg) is 45.6%. Moreover, the “Inhibition of acetic acid induced mouse writhes” value in series [4] (96 mg/kg) worked out at 86.6%. In series [5], the GI50 is 35.5 µM; the IC100 is 77.6 µM; the “Differential Cellular Sensitivity GI50” value is given as “COL;MEL”; the “Differential Cellular Sensitivity LC50” value is recorded as “SCL”. In addition, the “Differential Cellular Sensitivity TGI” value in series [5] is reported as “LEU;SCL”.
Consider `CN(C)CCC1(C2=CCCC2)CC/C(=C\c2ccc(Cl)cc2)C1=O` (centres unmarked) [Compound 13, 2-(1-Cyclopenten-1-yl)-2-dimethylaminoethyl-5-(E)-[(4-chloro)benzylidene]cyclopentanone hydrochloride], for which, in series [5], the GI50 was 7.08 µM; the LC50 is 44.7 µM; the IC100 was 19.1 µM; the “Differential Cellular Sensitivity GI50” value is “MEL”. Moreover, in series [5], the “Differential Cellular Sensitivity LC50” value is given as “MEL” and the “Differential Cellular Sensitivity TGI” value is recorded as “MEL”.
Regarding `C=C1C(=O)O[C@@H]2C[C@@H](C)[C@@H]3C=CC(=O)[C@@]3(C)[C@@H](O)[C@H]12` [Helenalin], in series [2], the “anti-inflammatory activity (in words)” value is “potent”. Moreover, the “anticancer activity (in words)” value in series [3] is reported as “potent”.
With `CC(C)Cc1ccc(C(C)C(=O)O)cc1` (centres unmarked) [Ibuprofen, reference compound], the “Inhibition of carrageenin induced rat paw edema” value in series [7] (setting [9]) came out at 72.9%; in series [7] (52.0 mg/kg po, about 1 hour before carrageenin) it was 54.9%.
As to `C[C@@H]1C[C@@H]2OC(=O)[C@]3(C)[C@H]2[C@@H](OC3(C)O)[C@]2(C)C(=O)C=C[C@@H]12` (some centres unmarked) [Tenulin], in series [2], the “anti-inflammatory activity (in words)” value was “potent”. Besides, the “anticancer activity (in words)” value in series [3] is listed as “potent”.
